Reference: the supplement of paper PMC10307832

Experiments:
Assay in all cases: relative viability (nuclei count vs DMSO), 5 days (fraction); higher = more cells survive
ABC-1 = test system: ABC-1
Summary of the method: (§1)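 Relative viability is defined as nuclei in treated wells over nuclei in vehicle wells. Duplicate plates were run and medians reported. Lung cancer cell lines in 1536-well plates were dosed by pin tool one day after seeding, with one drug or with a fixed anchor-drug dose plus five library-drug doses (not always all listed) in √10 steps, and nuclei were counted after 5 days.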

CAL-12T = test system: CAL-12T
Summary of the method: as §1

ChaGo-K-1 = test system: ChaGo-K-1
Summary of the method: as §1

HCC-366 = test system: HCC-366
Summary of the method: as §1

HCC-78 = test system: HCC-78
Summary of the method: as §1

LC-2-ad = test system: LC-2-ad
Summary of the method: as §1

LOU-NH91 = test system: LOU-NH91
Summary of the method: as §1

LU99A = test system: LU99A
Summary of the method: as §1

NCI-H1395 = test system: NCI-H1395
Summary of the method: as §1

NCI-H1651 = test system: NCI-H1651
Summary of the method: as §1

NCI-H1755 = test system: NCI-H1755
Summary of the method: as §1

`Nc1ccn([C@@H]2O[C@H](CO)[C@@H](O)[C@@H]2O)c(=O)n1` [Cytarabine] + CC(=O)c1c(C)c2cnc(Nc3ccc(N4CCNCC4)cn3)nc2n(C2CCCC2)c1=O [Palbociclib] (partner 0.5 µM) was tested, and the relative viability (ABC-1; first compound 0.005 µM) was 0.49, the relative viability (ABC-1; first compound 0.01581 µM) was 0.736 and the relative viability (ABC-1; first compound 0.05 µM) was 0.625. It also gave a relative viability (ABC-1; first compound 0.1581 µM) of 0.468, a relative viability (ABC-1; first compound 0.5 µM) of 0.432 and a relative viability (CAL-12T; first compound 0.005 µM) of 0.341. For the same molecule, the relative viability (CAL-12T; first compound 0.01581 µM) was 0.389, the relative viability (CAL-12T; first compound 0.05 µM) was 0.421 and the relative viability (CAL-12T; first compound 0.1581 µM) was 0.193. For the same molecule, the relative viability (CAL-12T; first compound 0.5 µM) was 0.146, the relative viability (ChaGo-K-1; first compound 0.005 µM) was 0.71 and the relative viability (ChaGo-K-1; first compound 0.01581 µM) was 0.598. It also gave a relative viability (ChaGo-K-1; first compound 0.05 µM) of 0.461, a relative viability (ChaGo-K-1; first compound 0.1581 µM) of 0.276 and a relative viability (ChaGo-K-1; first compound 0.5 µM) of 0.229. For the same molecule, the relative viability (HCC-366; first compound 0.005 µM) was 0.302, the relative viability (HCC-366; first compound 0.01581 µM) was 0.287 and the relative viability (HCC-366; first compound 0.05 µM) was 0.245. For the same molecule, the relative viability (HCC-366; first compound 0.1581 µM) was 0.0953, the relative viability (HCC-366; first compound 0.5 µM) was 0.0777 and the relative viability (HCC-78; first compound 0.005 µM) was 0.492. For the same molecule, the relative viability (HCC-78; first compound 0.01581 µM) was 0.42, the relative viability (HCC-78; first compound 0.05 µM) was 0.393 and the relative viability (HCC-78; first compound 0.1581 µM) was 0.366. For the same molecule, the relative viability (HCC-78; first compound 0.5 µM) was 0.361, the relative viability (LC-2-ad; first compound 0.005 µM) was 0.412 and the relative viability (LC-2-ad; first compound 0.01581 µM) was 0.417. For the same molecule, the relative viability (LC-2-ad; first compound 0.05 µM) was 0.505, the relative viability (LC-2-ad; first compound 0.1581 µM) was 0.379 and the relative viability (LC-2-ad; first compound 0.5 µM) was 0.412. The relative viability (LOU-NH91; first compound 0.005 µM) was 0.478, the relative viability (LOU-NH91; first compound 0.01581 µM) was 0.54 and the relative viability (LOU-NH91; first compound 0.05 µM) was 0.562. It also gave a relative viability (LOU-NH91; first compound 0.1581 µM) of 0.432, a relative viability (LOU-NH91; first compound 0.5 µM) of 0.412 and a relative viability (LU99A; first compound 0.005 µM) of 0.409. It also gave a relative viability (LU99A; first compound 0.01581 µM) of 0.399, a relative viability (LU99A; first compound 0.05 µM) of 0.391 and a relative viability (LU99A; first compound 0.1581 µM) of 0.388. For the same molecule, the relative viability (LU99A; first compound 0.5 µM) was 0.288, the relative viability (NCI-H1395; first compound 0.005 µM) was 0.599 and the relative viability (NCI-H1395; first compound 0.01581 µM) was 0.594. The relative viability (NCI-H1395; first compound 0.05 µM) was 0.492, the relative viability (NCI-H1395; first compound 0.1581 µM) was 0.406 and the relative viability (NCI-H1395; first compound 0.5 µM) was 0.345. The relative viability (NCI-H1651; first compound 0.005 µM) was 0.508, the relative viability (NCI-H1651; first compound 0.01581 µM) was 0.514 and the relative viability (NCI-H1651; first compound 0.05 µM) was 0.551. It also gave a relative viability (NCI-H1651; first compound 0.1581 µM) of 0.374, a relative viability (NCI-H1651; first compound 0.5 µM) of 0.277 and a relative viability (NCI-H1755; first compound 0.005 µM) of 0.428. The relative viability (NCI-H1755; first compound 0.01581 µM) was 0.422, the relative viability (NCI-H1755; first compound 0.05 µM) was 0.434 and the relative viability (NCI-H1755; first compound 0.1581 µM) was 0.377. The relative viability (NCI-H1755; first compound 0.5 µM) was 0.414.
